In paper PMC4104029, “Mechanism of Action of Compound-13: An α1-Selective Small Molecule Activator of AMPK” (Chemistry & Biology, 2014):
pEC50, pIC50: −log10 of the molar value.

Tests used:
[1] = target: T1, fructose-1,6-bisphosphatase-1 (FBP1) (Mus musculus, UniProt Q9QXD6); assay: FBP1 enzyme assay; type: biochemical
T1 construct: made in house; host or cells: E. coli
Protocol: (§1) Figure 1 The AMP Analog C2 Is a Potent AMPK Activator in Cell-Free Assays with Selectivity for α1 Complexes (A) The structure of the endogenous activator of AMPK, AMP; the AMP mimetic, C2; and the classical AMP mimetic, ZMP, and other AMPK activators are shown. […] (B) Recombinant AMPK complexes (α1β1γ1, α2β1γ1, α1β1γ2, and α1β2γ1) expressed in Spodoptera frugiperda were assayed for allosteric activation by AMP or C2. Results are expressed as the increase in activity relative to controls without ligand and represent the mean ± SD for three independent experiments. (C) Enzymes allosterically regulated by AMP (PFK1 and FBP1) or using AMP as a substrate (AMPD1, AK, and 5′-NT) were assayed in the presence of C2 (≤ 100 μM). Enzymes allosterically regulated by AMP were screened for both agonism and antagonism, the latter in the presence of AMP at ≈ EC50. All enzymes were unaffected by [C2] ≤ 100 μM. Representative data are shown for the effects of AMP and C2 on PFK1 and FBP1 activity. Results are representative of three independent experiments conducted on one enzyme preparation. […]

[2] = tested on: α1-containing complexes (α1β1γ1, α1β2γ1, and α1β1γ2); assay: AMPK allosteric activation, summary over several complexes; type: biochemical, human; settings: range over several AMPK complexes, cell-free
Excerpt: We initially compared the ability of C2 and AMP to activate various recombinant human AMPK complexes, expressed in insect cells, in cell-free assays (Figure 1B). As reported previously using rat liver complexes separated by immunoprecipitation ([Salt et al., 1998]), the allosteric activation of α1 complexes by AMP was less than that of α2 complexes. […] Similar results were obtained with other permutations of β and γ subunits in complex with α2 (data not shown). We also tested the effects of C2 and AMP on recombinant human α1β1γ1 and α2β1γ1 complexes expressed in E. coli and obtained similar results (data not shown).
AMPK phosphotransferase activity was assayed in reactions (50 μl) containing 50 mM HEPES, pH 7.4, 10 mM MgCl2, 0.1 mM EGTA, 1 mM DTT, 0.01% BRIJ-35, 100 μM [γ-^32P]ATP (∼250 CPM⋅pmol^−1) and 200 μM AMARA (AMARAASAAALARRR). Reactions were started by the addition of AMPK (5 mU), incubated for 20 min at 30°C and quenched by spotting onto P81 and immersion in 75 mM H3PO4. Washed filters were dried and [^32P] incorporation determined by Cherenkov counting. AMPK activity in cell extracts was determined by immunoprecipitation with AMPKα1 or AMPKα2 antibodies from 50 μg material, as previously described ([Hunter et al., 2011]). […]

[3] = target: T2, 6-phosphofructo-1 kinase (PFK1) (Mus musculus, UniProt P47857); assay: PFK1 enzyme assay; type: biochemical
T2 construct: made in house; host or cells: E. coli
T2 sequence (P47857 whole entry): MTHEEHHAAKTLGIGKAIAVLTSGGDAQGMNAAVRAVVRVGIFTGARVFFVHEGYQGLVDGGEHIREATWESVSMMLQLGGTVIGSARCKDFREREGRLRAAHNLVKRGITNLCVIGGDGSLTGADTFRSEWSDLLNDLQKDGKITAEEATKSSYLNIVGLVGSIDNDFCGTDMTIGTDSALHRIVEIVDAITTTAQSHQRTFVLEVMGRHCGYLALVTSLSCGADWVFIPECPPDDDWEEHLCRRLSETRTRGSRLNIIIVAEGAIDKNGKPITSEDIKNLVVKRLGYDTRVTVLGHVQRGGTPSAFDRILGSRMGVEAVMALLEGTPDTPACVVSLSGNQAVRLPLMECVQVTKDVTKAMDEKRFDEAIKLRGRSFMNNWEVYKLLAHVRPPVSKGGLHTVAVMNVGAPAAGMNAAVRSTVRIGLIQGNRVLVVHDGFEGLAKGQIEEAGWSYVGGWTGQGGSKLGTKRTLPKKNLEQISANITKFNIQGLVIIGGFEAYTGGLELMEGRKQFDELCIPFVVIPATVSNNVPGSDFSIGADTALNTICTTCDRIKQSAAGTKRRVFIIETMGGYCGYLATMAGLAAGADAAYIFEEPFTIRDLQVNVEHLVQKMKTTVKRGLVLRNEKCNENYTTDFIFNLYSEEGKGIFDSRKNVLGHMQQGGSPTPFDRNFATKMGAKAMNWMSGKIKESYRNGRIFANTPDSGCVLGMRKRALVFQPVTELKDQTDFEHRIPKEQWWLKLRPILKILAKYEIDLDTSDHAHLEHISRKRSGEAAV
Protocol: as §1

T1 sequence (Q9QXD6 whole entry): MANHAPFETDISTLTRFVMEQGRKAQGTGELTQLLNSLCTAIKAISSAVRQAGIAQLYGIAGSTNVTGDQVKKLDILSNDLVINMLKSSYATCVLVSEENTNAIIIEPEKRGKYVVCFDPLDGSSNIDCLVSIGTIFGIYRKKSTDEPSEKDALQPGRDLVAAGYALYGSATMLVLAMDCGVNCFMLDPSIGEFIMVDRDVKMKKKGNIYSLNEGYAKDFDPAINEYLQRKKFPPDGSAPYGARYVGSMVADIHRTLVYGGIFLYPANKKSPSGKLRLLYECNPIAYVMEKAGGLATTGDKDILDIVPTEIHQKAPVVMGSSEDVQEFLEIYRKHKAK

| Structure (SMILES) | pIC50 ([1]; read-out: IC50, inhibition of FBP1) | pEC50 [2] | pEC50 ([3]; read-out: EC50, activation of PFK1) | effect on FBP1 ([1]; concentrations up to 100 μM) | effect on PFK1 ([3]; concentrations up to 100 μM) |
| --- | --- | --- | --- | --- | --- |
| Nc1ncnc2c1ncn2[C@@H]1O[C@H](COP(=O)(O)O)[C@@H](O)[C@H]1O [AMP, reference compound] | 5.30 | 5.40 to 5.70 | 4.48 | – | – |
| O=P(O)(O)c1ccc(-c2cc(O)on2)o1 [Compound C2, 5-(5-hydroxyl-isoxazol-3-yl)-furan-2-phosphonic acid] | – | 7.52 to 8.00 | – | no effect | no effect |
